Results on one substance are retold here after patent US20210017200A1, “Hydrocarbyl Tin Complex with Antitumor Activity and Preparation Method Thereof” (priority 2020, published 2021).

Common to all, as to assay type: cell-based
Experiment [1] has as its system MCF7 (human breast cancer cells). The settings on record: MTT, 72 hours. As to the method:
(§1) MCF-7, HT-29, A549 and HepG2 cells are got from American Tissue Culture Collection, which are cultured with the culture medium containing 10% bovine fetal serum in a CO2-containing incubator at 37° C. The MTT method is used to detect cell proliferation and growth inhibition. The number of experimental cells is adjusted to obtain the absorbance at 570 nm, 6 concentrations are set for the compound test solution (0.1 nmol/L˜10 μmol/L). The cells are treated for 72 hours. At least 3 parallel experiments and 3 repeated experiments are conducted for each concentration. The IC50 value is determined by statistical analysis.
(§2) Taking cisplatin as the contrast, the in-vitro growth inhibitory activity of Compound 1 and Compound 2 on tumor cells are tested, including MCF7 (human breast cancer cells), HT-29 (human colon cancer cells), A549 (human lung cancer cells) and HepG2 (liver cancer cells).

Experiment [2] has as its system A549 (human lung cancer cells). The settings on record: MTT, 72 hours. As to the method: as §1, §2
Experiment [3] concerns HT-29 (human colon cancer cells). The settings on record: HT-29 cells, MTT, 72 hours. The protocol:
as §1, §2

In experiment [4] the test system is HepG2 (liver cancer cells). The settings on record: MTT, 72 hours. The protocol: as §1, §2

What is called IC50 is the concentration needed to halve the response being measured. A high value points to weaker potency.

“Tri-n-butyltin (IV) (4-methoxyphenyl) Acetylenyl Phosphonic Acid Derivatives [Compound 1]”: the IC50 in experiment [1] was determined as 853 nM; in experiment [2] it was 243 nM; in experiment [3], 65 nM; in experiment [4] it was 329 nM.
